pIC50: −log10 of the molar value. Entries after “also recorded” stand apart in the source; their conditions may differ. Bridges are numbered along the chain shown (N, C = ends). Where no end group is shown, it is not given here.
What was measured:
[1] = tested on: normal epithelial breast cells (MCF-10A); test: NBD-MsDef1 uptake by confocal microscopy, MCF-10A; assay type: cell-based; parameters: dose or concentration left out as unconfirmed; conditions: even at 5-fold higher dose
[2] = tested on: ovarian SKOV3 cells; test: NBD-MsDef1 uptake by confocal microscopy, SKOV3; assay type: cell-based; conditions: 15 min at 37°C, 20, 6.6 or 2.2 µg/ml, N=4
[3] = IC50 of NBD-labelled peptide, cell line not stated; assay type: cell-based; conditions: similar to native MsDef1
Description: (§1) Cell viability was evaluated by the standard MTT ([…])-2,5-diphenyltetrazolium bromide, Sigma) method. All cancer cells (MDA-MB-231, MCF-7, MCF-R, Hela, MCF-10A epithelial breast cells, induced pluripotent stem cells derived cardiomyocytes (iPSc) were added to the wells of 96-well flat-bottom plates at the density of 2×10^4 per well, allowed to attach overnight, and treated with different concentrations of MsDef1 (1-100 µM). After 24 h, 10 µl of MTT solution was added to each well and the plate was incubated at 37°C for 3 h. After removing the media, 200 µl of isopropanol were added to dissolve the crystals. Absorbance was read at 550 nm in an ELISA plate reader (Sunrise, Tecan, Milan, Italy), and the results are expressed as relative change with respect to the controls set as 100%. For cardiomyocytes, human iPSCs were used (Ionic Transports, St Louis).

[4] = tested on: resistant TNBC MDA-MB-231R cells; test: NBD-MsDef1 uptake by confocal microscopy, MDA-MB-231R; assay type: cell-based; conditions: 15 min at 37°C, 20, 6.6 or 2.2 µg/ml, N=4
[5] = tested on: fibroblasts cells; test: NBD-MsDef1 uptake by confocal microscopy, fibroblasts; assay type: cell-based; parameters: dose or concentration left out as unconfirmed; conditions: even at 5-fold higher dose
[6] = tested on: MCF-7R cells; test: Cell death / apoptosis (TUNEL) synergy study, MCF-7R; assay type: cell-based; conditions: MsDef1 ~25 μM, Doxorubicin; combination = MsDef1 pretreatment followed by Doxorubicin; N=4
Description: (§2) Doxorubicin resistant MCF-7R and MDA-MB-231R cells were grown in DMEM 10% FBS with increasing concentrations of Doxorubicin as described by Bielawski et al. ([40]). Cells were seeded and exposed to increasing concentrations of Doxorubicin (10 nM to 100 nM). MCF-7 or MDA-MB-231 cells were seeded in cell culture flasks and after 24 h, cells were trypsinized, counted viable cells and reseeded into a new culture flask before adding Doxorubicin again.
(§3) The percentage of apoptotic cells was determined by using TUNEL assay according to the manufacturer protocol. Briefly, cells were fixed with 1% paraformaldehyde at 4 °C, followed by two washing with PBS. Cold 70% ethanol was added to the cell pellet. Cells were then incubated at −20°C for permeabilization. After washing with PBS, cells were incubated with staining solution containing TdT enzyme and fluorescein-dUTP for 60 min at 37°C. Samples were washed with rinse buffer and resuspended in […] of propidium iodise/RNase solution for flow cytometry analysis.

[7] = tested on: normal cells; test: Cell viability, normal cells; assay type: cell-based; conditions: Figure 6B
Description: as §1

[8] = tested on: MDA-MB-231 cells; test: cells; assay type: cell-based; conditions: Homo sapiens, Doxorubicin dose response alone or combined with Def1 at 20 μM, N=4, unit inferred, read-out: IC50 (Figure 6C)
[9] = tested on: MDA-MB-231R cells; test: Cell death / apoptosis (TUNEL) synergy study, MDA-MB-231R; assay type: cell-based; conditions: MsDef1 ~25 μM, Doxorubicin; combination = MsDef1 pretreatment followed by Doxorubicin; N=4
Description: as §2, §3

[10] = tested on: GlcCer and Trx positive cancer cells; conditions: read-out: inhibitory activity IC50 against several cancer cells
Description: as §1

[11] = target: pepsin (Sus scrofa, UniProt P00791); conditions: SGF (200 mg NaCl, 0.2% pepsin, pH 2), 500 μL, 37°C, 2 min preincubation, 25 μL of 5 mg/ml protein, SDS PAGE read-out, n=4
pepsin, sequence (P00791 60-385): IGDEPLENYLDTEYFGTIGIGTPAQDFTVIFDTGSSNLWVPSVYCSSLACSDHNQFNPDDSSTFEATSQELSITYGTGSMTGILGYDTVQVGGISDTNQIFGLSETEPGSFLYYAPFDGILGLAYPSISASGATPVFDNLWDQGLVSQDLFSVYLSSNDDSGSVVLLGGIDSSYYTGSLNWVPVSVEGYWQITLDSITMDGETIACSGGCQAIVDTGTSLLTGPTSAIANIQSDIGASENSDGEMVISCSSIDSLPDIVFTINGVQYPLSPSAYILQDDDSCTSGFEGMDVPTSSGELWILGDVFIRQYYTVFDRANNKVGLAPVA
Description: The Simulated Gastric Fluid (SGF) assay was performed as described by Fu et al., 2002 with some modification. Tests were performed in 500 μL of SGF (200 mg NaCl, 0.2% pepsin, pH 2) in glass tubes in a 37°C water bath with continuous stirring of the enzyme reaction. […] Five mg/ml bovine serum albumin (minimum 98%, A-7030, Sigma Aldrich) in ultrapure water was used as the positive control for pepsin digestion. Protein samples were analyzed for degradation by SDS PAGE followed by staining for 1 h and extensive washing with ultrapure water.

6-((N-(7-nitrobenz-2-oxa-1, 3-diazol-4-yl) amino) hexanoyl -MsDef1 [NBD-MsDef1]
cell uptake [1]: did not take up
cell uptake [2]: significant uptake
pIC50 [3]: 4.92
cell uptake [4]: significant uptake
cell uptake [5]: did not take up

COc1cccc2c1C(=O)c1c(O)c3c(c(O)c1C2=O)C[C@@](O)(C(=O)CO)C[C@@H]3O[C@H]1C[C@H](N)[C@H](O)[C@H](C)O1 [Doxorubicin]
cell death [6]: ~ 30%
dose at which normal cells are killed / still safe [7]: ~ 9.6 μM
pIC50 [8]: 6.40
cell death [9]: ~ 30%

RTCENLADKYRGPCFSGCDTHCTTKENAVSGRCRDDFRCWCTKRC (disulfide 3-45, 14-33, 18-39, 22-41) [MsDef1]
pIC50 [10]: 4.82 to 5.00
stability to digestion in SGF [11]: remained undigested; also recorded: no significant change in the intensity of the bands

Source: publication PMC10251204, “Medicago Sativa Defensin1 as a tumor sensitizer for improving chemotherapy: translation from anti-fungal agent to a potential anti-cancer agent” (Frontiers in Oncology, 2023)
